# “And” between values parts separate entries of the source, which are not always exact repeats. Identical values can stand only once. “Also recorded” adds a separate entry of the source. Like-named read-outs stand apart in the source and are kept apart here.
# How the values were obtained:
# Format in all cases: physicochemical
# [1] = Storage at 40° C./75% RH for 7 days (one week), form checked by XRPD; conditions: for XRPD after storage at 40° C./75% RH for 7 days: one week (7 days); for Storage at 40° C./75% RH for one week (row head not given): Compound IV salts; for Storage at 40° C./75% RH for one week (row head not given) / Storage at 40° C./75% RH for 7 days: form by XRPD; for Storage at 40° C./75% RH for 7 days: Compound III salts
# Description: The suspensions were then cooled down to 5° C. at 0.1° C./min and were held at this temperature for 16 hrs. Stirring (500 rpm) was maintained throughout. Any gums that formed were maturated between 25 and 50° C. (4 hours at each temperature for 24 hrs). The suspensions were isolated by filtration under suction and air dried then analysed by XRPD. Any new patterns identified by XRPD were analysed further by NMR, TGA, DSC and stability at 40 C/75% RH for 1 week.
# [2] = Solubility measurements in SGF, FeSSIF and FaSSIF with XRPD of residual solids; conditions: for solubility in all media (in words): FeSSIF and FaSSIF; for Average Solubility / XRPD of residual solid / pH at 24 hrs / Solubility: Compound III-1, HCl and sulfate salts; for Solubility: single replicate
# Source text: The results from the solubility measurements in simulated gastric fluid (SGF), simulated fed state conditions in the small intestines (FeSSIF), and simulated fasting state conditions in the small intestines fluid (FaSSIF) are summarised in Table 12. The salts show reduced solubility in SGF compared to the free form.
# Crystalline FB Form A, HCl Form A, and the sufate salt Form A were scaled up for solubility analysis.
# HCl Form A was successfully scaled up for solubility analysis.
# [3] = Solubility assessment in solvents by aliquot addition (5-40 vol, 25° C., then heating)
# Description: Compound II-1 (40 mg) was treated with an aliquot of solvent (200 μl for 5 vol, 400 μl for 10 vol, 800 μl for 20 vol) and left to stir at 25° C. for 15 minutes. After 15 minutes, suspensions were treated with another aliquot of solvent and left to stir for the same duration again. Any solutions were removed from stirring and further solvent additions. This procedure was repeated up to 40 vol.
# At 40 vol, any remaining suspensions were heated to 40° C. at a rate of 10° C./min. Samples that remained as suspensions at 40° C. were moved to the maturation chamber (RT/50° C.) for 4 days. All solutions from solvent additions were heated to 50° C. before cooling to 5° C. at a rate of 0.1° C./min, then held at 5° C. overnight. […]
smiles,measurement,setting,value
C#Cc1cc(C)c(-c2c(-c3ccc(Oc4nccc(C)n4)c(F)c3)c3c(C)ncnc3n2C)c(C)n1.CS(=O)(=O)O [Compound IV-4],XRPD after storage at 40° C./75% RH for 7 days,[1],lose crystallinity
C#Cc1cc(OC)c(-c2c(-c3ccc(Oc4nccc(C)n4)c(F)c3)c3c(C)ncnc3n2C)cn1.O=C(O)C(O)C(O)C(=O)O [Compound III-6],XRPD after storage at 40° C./75% RH for 7 days,[1],No change in form
C#Cc1cc(C)c(-c2c(-c3ccc(Oc4nccc(C)n4)c(F)c3)c3c(C)ncnc3n2C)c(C)n1.Cc1ccc(S(=O)(=O)O)cc1 [Compound IV-3],XRPD of residual solids after solubility measurement,[2]; FaSSIF,remained unchanged
same,XRPD of residual solids after solubility measurement,[2]; FeSSIF,too poorly crystalline to assign
same,XRPD of residual solids after solubility measurement,[2]; SGF,remained unchanged
same,XRPD after storage at 40° C./75% RH for 7 days,[1]; listed as Compound IV pTSA Form A,pTSA Form B
same,XRPD after storage at 40° C./75% RH for 7 days,[1]; listed as Compound IV-1 tosylate salt,change form
C#Cc1cc(C)c(-c2c(-c3ccc(Oc4nccc(C)n4)c(F)c3)c3c(C)ncnc3n2C)c(C)n1.O=S(=O)(O)c1ccccc1 [BSA Form A],Storage at 40° C./75% RH for one week (row head not given),[1],Change in form -
C#Cc1cc(OC)c(-c2c(-c3ccc(Oc4nccc(C)n4)c(F)c3)c3c(C)ncnc3n2C)cn1.CS(=O)(=O)O [Compound III-5],XRPD after storage at 40° C./75% RH for 7 days,[1],lose crystallinity
C#Cc1cc(OC)c(-c2c(-c3ccc(Oc4nccc(C)n4)c(F)c3)c3c(C)ncnc3n2C)cn1.Cl [Compound III-2],XRPD of residual solids after solubility measurement,[2]; FaSSIF,new form
same,solubility in FeSSIF (in words),[2]; simulated fed state intestinal fluid,lower solubility than the free form
same,XRPD after storage at 40° C./75% RH for 7 days,[1]; listed as Compound III HCl Form A,converting to HCl Form B
same,XRPD after storage at 40° C./75% RH for 7 days,[1]; listed as Compound III HCl Form B,large reduction in crystallinity
same,XRPD after storage at 40° C./75% RH for 7 days,[1]; listed as Compound III HCl Form D,no change in form
same,XRPD after storage at 40° C./75% RH for 7 days,[1]; listed as Compound III HCl Patterns 3 and 5,no change in form
same,XRPD after storage at 40° C./75% RH for 7 days,[1]; listed as Compound III-1 chloride salt,change form
C=C(C)C(=O)Nc1ccc(-c2c(C3=CC[C@H](C(=O)N4CCCC4)CC3)c3c(N)ncnc3n2C)c(C)c1.O=S(=O)(O)c1ccccc1 [Compound II-6],solubility in all media (in words),[2]; SGF,low solubility
same,XRPD after storage at 40° C./75% RH for 7 days,[1],no change
C#Cc1cc(C)c(-c2c(-c3ccc(Oc4nccc(C)n4)c(F)c3)c3c(C)ncnc3n2C)c(C)n1.Cl [Compound IV-2],XRPD of residual solids after solubility measurement,[2]; FaSSIF,converted to free form Form A
same,XRPD of residual solids after solubility measurement,[2]; FeSSIF,converted to free form Form A
same,solubility in all media (in words),[2]; SGF,more soluble than the tosylate salt
same,solubility in SGF (in words),[2]; simulated gastric fluid,completely dissolved
same,XRPD after storage at 40° C./75% RH for 7 days,[1],no change to form
C#Cc1cc(OC)c(-c2c(-c3ccc(Oc4nccc(C)n4)c(F)c3)c3c(C)ncnc3n2C)cn1.O=S(=O)(O)O [SO4 Form A],Average Solubility,[2]; FaSSIF,1950 µg/mL
same,XRPD of residual solid,[2]; FaSSIF,Poorly crystalline
same,pH at 24 hrs,[2]; FaSSIF,2.6 and 2.7
same,Solubility,[2]; FaSSIF,2000 µg/mL and 1900 µg/mL
same,Average Solubility,[2]; FeSSIF,230 µg/mL
same,XRPD of residual solid,[2]; FeSSIF,FB Form C
same,pH at 24 hrs,[2]; FeSSIF,4.4
same,Solubility,[2]; FeSSIF,240 µg/mL and 220 µg/mL
same,Average Solubility,[2]; SGF,>10500 µg/mL
same,pH at 24 hrs,[2]; SGF,1.7
same,Solubility,[2]; SGF,>10200 µg/mL and >10700 µg/mL
C=C(C)C(=O)Nc1ccc(-c2c(C3=CC[C@H](C(=O)N4CCCC4)CC3)c3c(N)ncnc3n2C)c(C)c1.Cc1ccc(S(=O)(=O)O)cc1 [Compound II-4],solubility in FaSSIF (in words),[2],highest solubility
same,XRPD after storage at 40° C./75% RH for 7 days,[1]; listed as Compound II pTSA Form A,XRPD unchanged
same,XRPD after storage at 40° C./75% RH for 7 days,[1]; listed as Compound II pTSA Form B,conversion to pTSA Form A; also recorded: Converted to pTSA
same,XRPD after storage at 40° C./75% RH for 7 days,[1]; listed as Compound II pTSA Form C,conversion to pTSA Form A; also recorded: Converted to pTSA
same,XRPD after storage at 40° C./75% RH for 7 days,[1]; listed as Compound II-1 tosylate salt,no change
C#Cc1cc(OC)c(-c2c(-c3ccc(Oc4nccc(C)n4)c(F)c3)c3c(C)ncnc3n2C)cn1.O=C(O)C(O)C(O)C(=O)O [TAR Form A],Storage at 40° C./75% RH for 7 days,[1],No change
C=C(C)C(=O)Nc1ccc(-c2c(C3=CC[C@H](C(=O)N4CCCC4)CC3)c3c(N)ncnc3n2C)c(C)c1.O=C(O)/C=C/C(=O)O [Compound II-7],XRPD after storage at 40° C./75% RH for 7 days,[1],no change
C#Cc1cc(C)c(-c2c(-c3ccc(Oc4nccc(C)n4)c(F)c3)c3c(C)ncnc3n2C)c(C)n1.Cc1ccc(S(=O)(=O)O)cc1 [pTSA Form A],Storage at 40° C./75% RH for one week (row head not given),[1],Change in form -
Br.C#Cc1cc(OC)c(-c2c(-c3ccc(Oc4nccc(C)n4)c(F)c3)c3c(C)ncnc3n2C)cn1 [Compound III-3],XRPD after storage at 40° C./75% RH for 7 days,[1],change form
Br.C#Cc1cc(OC)c(-c2c(-c3ccc(Oc4nccc(C)n4)c(F)c3)c3c(C)ncnc3n2C)cn1 [HBr Form A],Storage at 40° C./75% RH for 7 days,[1],Change in form -
C=C(C)C(=O)Nc1ccc(-c2c(C3=CC[C@H](C(=O)N4CCCC4)CC3)c3c(N)ncnc3n2C)c(C)c1.Cl [Compound II-2],XRPD after storage at 40° C./75% RH for 7 days,[1],no change
C#Cc1cc(C)c(-c2c(-c3ccc(Oc4nccc(C)n4)c(F)c3)c3c(C)ncnc3n2C)c(C)n1.Cl [HC1 Form A],Storage at 40° C./75% RH for one week (row head not given),[1],Reduced crystallinity -
"C#Cc1cc(C)c(-c2c(-c3ccc(Oc4nccc(C)n4)c(F)c3)c3c(C)ncnc3n2C)c(C)n1 [Compound IV-1, 6-(6-ethynyl-2,4-dimethylpyridin-3-yl)-5-(3-fluoro-4-((4-methylpyrimidin-2-yl)oxy)phenyl)-4,7-dimethyl-7H-pyrrolo[2,3-d]pyrimidine]",Observation after treatment,"[3]; 2-Propanol, after cooling from 50° C. to 5° C.",Clear solution
same,Observation after treatment,"[3]; 10% Water/IPA, after cooling from 50° C. to 5° C.",Clear solution
same,Observation after treatment,"[3]; 10% Water/MeCN, after cooling from 50° C. to 5° C.",Clear solution
same,solubility in the solvents tested (in words),"[3]; 13 solvents, up to 40 vol",soluble in all but three of the solvents tested
same,Observation after treatment,"[3]; Acetone, after cooling from 50° C. to 5° C.",Clear solution
same,Observation after treatment,"[3]; Ethanol, after cooling from 50° C. to 5° C.",Clear solution
same,Observation after treatment,"[3]; Ethyl acetate, after cooling from 50° C. to 5° C.",Clear solution
same,Observation after treatment,"[3]; Isopropyl acetate, after cooling from 50° C. to 5° C.",Clear solution
same,Observation after treatment,"[3]; MEK, after cooling from 50° C. to 5° C.",Clear solution
same,Observation after treatment,"[3]; Methanol, after cooling from 50° C. to 5° C.",Clear solution
same,Observation after treatment,"[3]; TBME, 40 vol, after maturation (RT/50° C.) 4 days",Suspension
same,Observation after treatment,"[3]; THF, after cooling from 50° C. to 5° C.",Clear solution
same,Observation after treatment,"[3]; Water, 40 vol, after maturation (RT/50° C.) 4 days",Suspension
same,Observation after treatment,"[3]; n-Heptane, 40 vol, after maturation (RT/50° C.) 4 days",Suspension
same,XRPD of residual solids after solubility measurement,"[2]; all media (SGF, FeSSIF, FaSSIF)",remained unchanged
same,solubility in FaSSIF (in words),[2]; simulated fasting state intestinal fluid,lowest solubility
Br.C=C(C)C(=O)Nc1ccc(-c2c(C3=CC[C@H](C(=O)N4CCCC4)CC3)c3c(N)ncnc3n2C)c(C)c1 [Compound II-3],XRPD after storage at 40° C./75% RH for 7 days,[1],convert to an amorphous form
C#Cc1cc(C)c(-c2c(-c3ccc(Oc4nccc(C)n4)c(F)c3)c3c(C)ncnc3n2C)c(C)n1.O=S(=O)(O)c1ccccc1 [Compound IV-5],XRPD after storage at 40° C./75% RH for 7 days,[1],change form

# From patent US12152034B2, “FGFR inhibitors and methods of making and using the same” (Relay Therapeutics, Inc., priority 2020, dated 2024)
